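All cell lines were grown in 96-well plates and treated with compound for 48 hours. GI50: concentration for 50% inhibition of growth. At the TGI there is no net growth.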
Key:
Test in all cases: NCI tumour cell line growth inhibition, 48 h
HCC-2998 colon = test system: HCC-2998 colon
HCT-15 colon = test system: HCT-15 colon
HS 578T breast = test system: HS 578T breast
K-562 leukemia = test system: K-562 leukemia
KM12 colon = test system: KM12 colon
MCF7 breast = test system: MCF7 breast
NCI-H226 lung = test system: NCI-H226 lung
SK-MEL-5 melanoma = test system: SK-MEL-5 melanoma
SNB-19 CNS = test system: SNB-19 CNS
SNB-75 CNS = test system: SNB-75 CNS

| Compound | GI50 (HCC-2998 colon) [µM] | TGI (HCC-2998 colon) [µM] | GI50 (HCT-15 colon) [µM] | TGI (HCT-15 colon) [µM] | GI50 (HS 578T breast) [µM] | TGI (HS 578T breast) [µM] | GI50 (K-562 leukemia) [nM] | TGI (K-562 leukemia) [µM] | GI50 (KM12 colon) [nM] | TGI (KM12 colon) [µM] | GI50 (MCF7 breast) [nM] | TGI (MCF7 breast) [µM] | GI50 (NCI-H226 lung) [µM] | TGI (NCI-H226 lung) [µM] | GI50 (SK-MEL-5 melanoma) [nM] | TGI (SK-MEL-5 melanoma) [µM] | GI50 (SNB-19 CNS) [µM] | TGI (SNB-19 CNS) [µM] | GI50 (SNB-75 CNS) [µM] | TGI (SNB-75 CNS) [µM] |
| --- | --- | --- | --- | --- | --- | --- | --- | --- | --- | --- | --- | --- | --- | --- | --- | --- | --- | --- | --- | --- |
| CCCCCCCCCCCCOC1C(C(COC2OC(C(O)CO)C3OC(C)(C)OC23)OC(=O)Nc2ccc([N+](=O)[O-])cc2)OC2OC(C)(C)OC21 (configuration not stated) | 11.6 | 25.1 | 3.3 | 11.1 | 1.88 | 3.74 | 3870 | 16.8 | 2000 | 4.1 | 2690 | 8.6 | 2.98 | 11.2 | 1710 | 3.11 | 9.43 | 21.8 | 3.64 | 16.1 |
| CCc1cccc(C(C)C)c1C1C(=O)C(=O)N(c2nc3ccccc3s2)C(=O)C1=O |  | > 100 |  | > 100 |  |  |  | > 100 |  | > 100 |  |  |  | > 100 |  | > 100 |  | > 100 |  | > 100 |
| CC1SC(c2cccc(Oc3ccccc3)c2)N(CCc2cccs2)C1=O (configuration not stated) | 1.88 | 5.75 | 1.08 | 3.77 |  |  | 573 | 7.79 | 626 | 2.49 | 551 | 5.07 | 1.28 | 2.94 | 607 | 1.87 | 1.64 | 9.01 | 1.3 | 3.71 |
| Cc1nn(C(=O)CC(=O)Nc2ccccc2Cl)c(C)c1N=Nc1ccccc1Cl |  | > 100 |  | > 100 |  |  |  | > 100 |  | > 100 |  |  |  |  |  | > 100 |  | > 100 |  | > 100 |
| Cn1c(N)c(N=Nc2ccc(S(N)(=O)=O)cc2)c(=O)n(C)c1=O |  |  |  | > 100 |  | 99.1 |  | > 100 |  | > 100 |  | > 100 |  | > 100 |  | > 100 |  | > 100 |  | 56.2 |
| CCCCCC1C2C(=O)NC(=O)C1C(=O)NC2=O (configuration not stated) |  | > 100 |  | > 100 |  |  |  | > 100 |  | > 100 |  |  |  | > 100 |  | > 100 |  | > 100 |  | > 100 |
| O=C1c2cccc3cc4ccccc4c(c23)C(=O)N1CCCNCCNCCCN1C(=O)c2cccc3cc4ccccc4c(c23)C1=O |  | 1.71 |  | 1.36 |  | 1.98 |  | 0.337 |  | 1.29 |  |  |  |  |  | 1.39 |  | 2.23 |  | 1.48 |
| Nc1n[nH]c(=O)c2c1c(Br)cn2C1OC(CO)C(O)C1O (configuration not stated) |  | 24.7 |  | 48.4 |  |  |  | > 100 |  | > 100 |  |  |  | 59.3 |  | 45.4 |  | > 100 |  | 11.2 |
| NCCN.O=N[O-].O=N[O-].O=N[O-].O=N[O-].[Co+3].[K+] |  |  | > 100 | > 100 |  |  | > 100000 | > 100 | > 100000 | > 100 |  |  |  |  | > 100000 | > 100 | > 100 | > 100 | > 100 | > 100 |
| CC(=O)NC1C(=O)CC(c2ccccc2)N(C)C1c1ccccc1 (configuration not stated) |  | > 100 |  | > 100 |  |  |  | > 100 |  | > 100 |  |  |  | > 100 |  | > 100 |  | > 100 |  | > 100 |
| O=c1c2ccccc2nc(-c2ccccc2Cl)n1NC1OC(CO)C(O)C(O)C1O (configuration not stated) |  | > 100 |  | > 100 |  |  |  | > 100 |  | > 100 |  |  |  | > 100 |  | > 100 |  | > 100 |  | > 100 |
| CCCC1C2=C(C(=O)OC2=O)C2C(CC)CC3=C(C(=O)OC3=O)C12 (configuration not stated) |  |  |  | > 100 |  | > 100 |  | > 100 |  | > 100 |  | > 100 |  | > 100 |  | > 100 |  | > 100 |  | > 100 |
| Cc1cn2cc(-c3ccncc3)nc2s1 |  | > 100 |  | > 100 |  |  |  | > 100 |  | > 100 |  |  |  | > 100 |  | > 100 |  | > 100 |  | > 100 |
| COCC(O)CN1C(N)=NC(O)C1O (configuration not stated) |  | > 100 |  |  |  |  |  |  |  | > 100 |  |  |  | > 100 |  | > 100 |  | > 100 |  | > 100 |
| COc1cc2c(c(OC)c1OC)-c1c(c3ccc([N+](=O)[O-])cc3c(=O)n1CCCN=[N+]=[N-])C2=O | > 100 | > 100 | 44.6 | > 100 | 12.2 | > 100 | > 100000 | > 100 | > 100000 | > 100 | 1370 | > 100 | 28.4 | 71.8 | > 100000 | > 100 | 29.7 | 98.3 |  |  |
| Cc1nc2cc(NC(=O)CN3CCN(CCN4C(=O)c5cccc6cccc(c56)C4=O)CC3)ccc2s1 | 6.66 | > 100 | 3.58 | 16.5 | 6.53 | 52.5 |  |  | 4950 | 18.4 | 4080 | 15.5 | 4.67 | 73.9 | 2730 | 10.9 | 6.23 | 21.4 | 3.51 | 21.4 |
| CC/C(=C(\c1ccccc1)c1ccc(OCC[N+](C)(C)C)cc1)c1ccccc1 |  | 34.2 |  | 34.1 |  |  |  | 19.9 |  | 29.8 |  |  |  | 26.7 |  | 16.4 |  | 37.1 |  | 23.9 |
| Cc1cc(N2CCOCC2)nc(N(CCNc2ccnc3cc(Cl)ccc23)Cc2cccs2)n1 | 2.39 | 5.11 | 1.78 | 4.05 | 2.24 | 5.45 | 1670 | 3.98 | 2230 | 5.34 | 1970 | 4.68 |  |  | 1590 | 2.96 | 4.24 | 76.2 | 1.98 | 5.25 |
| CC(=O)/C=C\C(=O)NNS(=O)(=O)c1ccc(C)cc1 |  | > 100 |  | > 100 |  |  |  | > 100 |  | > 100 |  |  |  | > 100 |  | > 100 |  | > 100 |  | > 100 |
